Where two headings read alike, the source gives them in different places.
Tests used:
[1] = tested on: caspase-3/-7 activity in A375 and UACC-62 cells; settings: 24 h; PAC-1 12 μM, vemurafenib 10 μM, trametinib 100 nM
Experimental: (A) Shown is percent apoptotic cell death after 24 h of treatment. […] Activity is expressed as normalized to the positive control. Dashed horizontal lines represent the level of cell death expected from a mere additive effect of the two agents. Values are reported as mean±SEM of at least three experiments.
5,000-8,000 cells were plated in 96 well plates and allowed to adhere. Cells were treated with 1 μM of staurosporine for 24 h or with 13 μM of raptinal (Palchaudhuri et al., Cell Rep 2015; 13:2027-36) for 3 h as positive control, DMSO as negative control and indicated concentrations of PAC-1 and vemurafenib for 0, 2, 4, 7, 10, 12, 16, 20 or 24 h. Plates were then assessed for caspase-3/7 activity via addition of bifunctional lysis and activity buffer (200 mM HEPES, 400 mM NaCl, 40 mM DTT, 0.4 mM EDTA, 1% Triton-X, pH 7.4) with 20 μM of Ac-DEVD-AFC (SEQ ID NO: 20) (Cayman Chemicals) as the fluorogenic substrate (λex=400 nm, λem=505 nm). Plates were pre-incubated at 37° C. at 30 min in the Synergy multi-mode reader (BioTek) then read for 30 min at 3 min intervals. The slopes for each well were calculated. Activity is expresses as normalized to minimal and maximal activity observed within the assay.

[2] = tested on: PARP-1 cleavage in A375 cells; assay: PARP-1 cleavage Western blot in A375; assay type: cell-based, human; settings: PAC-1 or PAC-1a 12 μM, vemurafenib 10 μM; up to 24 h
Experimental: (§2) Cells and tumor tissues were lysed using RIPA buffer containing phosphatase and protease inhibitor cocktail (Calbiochem). The protein concentration of each sample was determined by the BCA assay (Pierce). Cell lysates containing 20 μg of protein was loaded into each lane of 4-20% gradient gels (BioRad) for SDS-PAGE. Proteins were transferred onto PDVF membrane for Western blot analysis.

A375VR cells [3] = assay: Cellular proliferation (SRB) assay in vemurafenib-resistant A375VR; assay type: cell-based, human; settings: for IC50: 120 h, 5-day
Experimental: To assess if PAC-1 remains active in a cell line that has acquired resistance to vemurafenib, a vemurafenib-resistant A375VR cell line was generated by growing A375 parental cell line in sequentially higher concentrations of vemurafenib (0.5 μM to 1.0 μM) for 2 months. To determine the mechanism of resistance of A375VR, genes for MEK1/2, NRAS and AKT were sequenced, but no commonly reported mutations that would confer resistance were found (Rizos et al., Clinical Cancer Research 2014; 20:1965-77). Similarly, splice variant of the ^V600EBRAF mRNA was also not observed. Through qPCR, A375VR cells have approximately 3-fold higher levels of MDR1 mRNA compared to A375.
(§1) 1000-2000 cells were seeded per well in a 96-well plate and allowed to adhere before DMSO solutions of PAC-1 or vemurafenib were added to each well. Proliferation was assessed by the sulforhodamine B (SRB) assay.

[4] = tested on: caspase-3/-7 activity in A375 cells; settings: PAC-1 12 μM, vemurafenib 10 μM; combination increase as early as 7 h post-treatment
Experimental: (§3) 5,000-8,000 cells were plated in 96 well plates and allowed to adhere. […] Plates were then assessed for caspase-3/7 activity via addition of bifunctional lysis and activity buffer (200 mM HEPES, 400 mM NaCl, 40 mM DTT, 0.4 mM EDTA, 1% Triton-X, pH 7.4) with 20 μM of Ac-DEVD-AFC (SEQ ID NO: 20) (Cayman Chemicals) as the fluorogenic substrate (λex=400 nm, λem=505 nm). Plates were pre-incubated at 37° C. at 30 min in the Synergy multi-mode reader (BioTek) then read for 30 min at 3 min intervals. The slopes for each well were calculated. Activity is expresses as normalized to minimal and maximal activity observed within the assay.

[5] = tested on: panel of nine cell lines of diverse origins and BRAF mutational status; assay: Cellular proliferation (SRB) assay, 5-day IC50, panel of nine cell lines; assay type: cell-based; settings: 120 h, read-out: IC50 values (5 day)
Experimental: as §1

[6] = tested on: caspase-3/-7 activity in SK-MEL-5 cells; settings: PAC-1 12 μM, vemurafenib 10 μM
Experimental: as §3

[7] = tested on: PARP-1 cleavage in UACC-62 cells; assay: PARP-1 cleavage Western blot in UACC-62; assay type: cell-based, human; settings: PAC-1 12 μM, vemurafenib 10 μM
Experimental: as §2

A375 and SK-MEL-5 cells = assay: Long-term (up to 30 days) continuous treatment, cell regrowth; assay type: cell-based, human; settings: PAC-1 4 μM or vemurafenib 10 μM
Experimental: We therefore hypothesized that long term treatment with vemurafenib would lead to re-growth of cancer cells, while treatment with PAC-1 should prevent re-growth. To investigate this hypothesis, A375 and SK-MEL-5 cells were plated at low densities and treated continuously with PAC-1 (4 μM) or vemurafenib (10 μM) for up to 30 days. […] However, in wells treated with PAC-1, no regrowth was observed even after 30 days (FIG. 5B). Thus, consistent with the higher Emax value, PAC-1 is able to quantitatively kill cells thereby preventing regrowth.

A375 or UACC-62 cells = assay: In vitro resistance assay (SRB, 5, 10 and 20 days); assay type: cell-based, human; settings: for cell number compared to the control, after 5 days: vemurafenib 5 μM or 10 μM; for cell death on day 10: A375, alone or with 1 μM PAC-1
Experimental: The next day, vemurafenib (5 or 10 μM) or PAC-1 (1 μM) were treated in six technical replicates for 5, 10 and 20 days. Fresh media and compounds were added every 2-3 days for the duration of the study. At the end of 5, 10 or 20 days, the wells were fixed with 10% cold trichloroacetic acid for 1 h at 4° C. The wells were then washed, allowed to dry and stained with 0.5% SRB dye for 30 min at room temperature. The wells were then washed with 0.1% acetic acid and allowed to dry. At this point, images of the plates were taken with GelDoc XR (BioRad). Finally, 200 μL of 10 mM Tris base (pH >10.4) was added into well and the absorbance at 510 nm were read using SpectraMax Plus (Molecular Devices). The absorbance at 510 nm is plotted against the days post treatment as an indication of cell proliferation over the time course of the experiment.

[8] = tested on: PARP-1 cleavage in SK-MEL-5 cells; assay: PARP-1 cleavage Western blot in SK-MEL-5; assay type: cell-based, human; settings: PAC-1 12 μM, vemurafenib 10 μM
Experimental: as §2

A375 xenograft tumors = assay: A375 subcutaneous mouse xenograft model of melanoma
Experimental: In this model, nude mice were inoculated subcutaneously with A375 cells, and after allowing the tumors to grow, mice were randomized based upon tumor volume into four groups [F=0.03<Fcritical(3.01)] and dosed with PAC-1, vemurafenib, or the combination for 15 days.
0.1 mL of A375 or A375VR in 1:1 DMEM:matrigel (Corning) was injected into the right flank of 6-7 (A375) or 5 (A375VR) week old female athymic nude mice (Charles River). In the both models, the mice were randomized into four groups: control, 100 mg/kg PAC-1, 10 mg/kg vemurafenib, and the combination of 100 mg/kg PAC-1 and 10 mg/kg vemurafenib (n=8). Initial tumor volume measurements were taken and dosing was initiated for a period of 15 days. Vemurafenib was formulated as 5% DMSO in 1% methyl cellulose and given twice daily by oral gavage (p.o.). PAC-1 was formulated in 200 mg/mL hydroxypropyl-β-cyclodextrin at pH 5.5 and given by intraperitoneal (i.p.) injection. Tumor length and width measurements were taken three times a week and volume was calculated as 0.52*L*W^2. At the end of the study, the mice were euthanized and tumors were excised. The tumors were weighed and used for Western blot and immunohistochemistry.

[9] = tested on: caspase-3/-7 activity in UACC-62 cells; settings: PAC-1 12 μM, vemurafenib 10 μM
Experimental: as §3

A375VR xenograft tumors = settings: nude mice, 15 days; vemurafenib 10 mg/kg, PAC-1 100 mg/kg
Experimental: All animal studies were performed in accordance with UIUC IACUC guidelines (protocol no. 14292). 0.1 mL of A375 or A375VR in 1:1 DMEM:matrigel (Corning) was injected into the right flank of 6-7 (A375) or 5 (A375VR) week old female athymic nude mice (Charles River). In the both models, the mice were randomized into four groups: control, 100 mg/kg PAC-1, 10 mg/kg vemurafenib, and the combination of 100 mg/kg PAC-1 and 10 mg/kg vemurafenib (n=8). Initial tumor volume measurements were taken and dosing was initiated for a period of 15 days. Vemurafenib was formulated as 5% DMSO in 1% methyl cellulose and given twice daily by oral gavage (p.o.). PAC-1 was formulated in 200 mg/mL hydroxypropyl-β-cyclodextrin at pH 5.5 and given by intraperitoneal (i.p.) injection. Tumor length and width measurements were taken three times a week and volume was calculated as 0.52*L*W^2. At the end of the study, the mice were euthanized and tumors were excised. The tumors were weighed and used for Western blot and immunohistochemistry.

A375 cells = assay: Cellular proliferation (SRB) assay in A375; assay type: cell-based, human; settings: for Emax: A-375, 120 h
Experimental: as §1

A375VR cells [10] = assay: Annexin V/PI apoptosis in A375VR; assay type: cell-based, human; settings: 24 h; in combination with low concentrations of vemurafenib
Experimental: FIGS. 13A-C. Effect of the PAC-1 and vemurafenib combination in A375VR cells. (A) Shown is percent apoptotic cell death (assessed by Annexin V/PI staining and flow cytometry) induced after 24 h of treatment. (B) The apoptotic cell death observed in (A) is greater than that predicted by the Bliss independent model. The excess cell death is calculated as [f(observed, apoptotic)−(f(PAC-1, apoptotic)+f(vemurafenib, apoptotic)−f(PAC-1, apoptotic)*f(vemurafenib, apoptotic))]*100%. […] (C) The synergistic effect of PAC-1 and vemurafenib in activating apoptosis in A375VR after 24 h.

[11] = tested on: ERK1/2 phosphorylation in UACC-62 cells; assay: ERK1/2 phosphorylation Western blot in UACC-62; assay type: cell-based, human; settings: 24 h; vemurafenib 0.5 μM and 1 μM
Experimental: as §2

[12] = tested on: ERK1/2 phosphorylation in WTBRAF cell lines; assay: ERK1/2 phosphorylation Western blot in WTBRAF cell lines; assay type: cell-based; settings: 24 h; even at high concentrations (30 μM)
Experimental: as §2

[13] = tested on: ERK1/2 phosphorylation in A375VR cells; assay: ERK1/2 phosphorylation Western blot in A375VR; assay type: cell-based, human; settings: 2 h; vemurafenib 0.5 or 1 μM
Experimental: as §2

[14] = tested on: melanoma patients with the V600E BRAF protein; settings: literature; cited from earlier work
[15] = tested on: ERK1/2 phosphorylation in A375 cells; assay: ERK1/2 phosphorylation Western blot in A375; assay type: cell-based, human
Experimental: as §2

[16] = tested on: ERK1/2 phosphorylation in SK-MEL-5 cells; assay: ERK1/2 phosphorylation Western blot in SK-MEL-5; assay type: cell-based, human; settings: 24 h; vemurafenib 0.5 μM and 1 μM
Experimental: as §2

| Structure (SMILES) | caspase-3/-7 activity [1] | PARP-1 cleavage [2] | IC50 (A375VR cells [3]; Homo sapiens, A375VR) | caspase-3 activity [4] | IC50 [5] | caspase-3/-7 enzymatic activity [6] | PARP-1 cleavage [7] | time of continuous treatment to regrowth of cells (A375 and SK-MEL-5 cells) | cell number compared to the control, after 5 days (A375 or UACC-62 cells; A375 and UACC-62, PAC-1 1 μM) | PARP-1 cleavage [8] | caspase-3/-7 enzymatic activity [9] | antitumor effect (tumor volume compared to untreated control) (A375VR xenograft tumors) | Emax (percent cell death induced by high concentrations of compound) (A375 cells; A375 cells, after 5 days) | also measured |
| --- | --- | --- | --- | --- | --- | --- | --- | --- | --- | --- | --- | --- | --- | --- |
| C=CCc1cccc(/C=N/NC(=O)CN2CCN(Cc3ccccc3)CC2)c1O [PAC-1, 2-(4-benzylpiperazin-1-yl)-N-[(2-hydroxy-3-prop-2-enyl-phenyl)methylideneamino]acetamide] | little effect | little effect | 2400 nM | negligible increases | 1000 to 4000 nM | little effect | little effect | > 30 days | significant reduction in cell number | little effect | little effect | does not exert any antitumor affect | ~100% | difference from the control on day 10 (A375 or UACC-62 cells; PAC-1 1 μM): no observable difference; reduction in tumor mass and volume compared to untreated control (A375 xenograft tumors; PAC-1 100 mg/kg once daily i.p., 15 days): minimal reduction; Emax (A375 cells; Homo sapiens, read-out: Emax (percent cell death induced by high concentrations of compound), A375 cells, after 5 days): 99.4 ± 0.7%; IC50 (A375 cells; Homo sapiens, A-375, read-out: IC50 value): 1200 nM |
| O=C(CN1CCN(Cc2ccccc2)CC1)N/N=C/c1ccccc1 [PAC-1a] |  |  |  |  |  |  |  |  |  |  |  |  |  | proportion of cells undergoing apoptosis (A375VR cells [10]): abolished |
| CCCS(=O)(=O)Nc1ccc(F)c(C(=O)c2c[nH]c3ncc(-c4ccc(Cl)cc4)cc23)c1F [vemurafenib] | little effect | little effect | 1500 nM | negligible increases | 200 to 550 nM | little effect | little effect | ≥ 20 days | significant reduction in cell number | little effect | little effect | does not exert any antitumor affect | ~97% | phosphorylation of ERK1/2 [11]: inhibited the phosphorylation of ERK1/2; loss of potency compared to parental A375 (A375VR cells [3]; 5-day IC50, A375VR vs A375): 12 fold; Emax lower than the parental A375 cell line (A375VR cells [3]; A375VR vs A375): 14%; Emax (A375VR cells [3]; Homo sapiens, A375VR): 79 ± 6.3%; inhibition of ERK1/2 phosphorylation [12]: not observed; complete inhibition of ERK1/2 phosphorylation [13]: not observed; extension of progression-free survival [14]: 5.3 months; cell death on day 10 (A375 or UACC-62 cells; vemurafenib 5 μM): 89.4±1.4%; cell death on day 10 (A375 or UACC-62 cells; vemurafenib 10 μM): 93.2±1.1%; regrowth of colonies after 20 days of treatment (A375 or UACC-62 cells; A375 and UACC-62, vemurafenib 5 or 10 μM, PAC-1 1 μM): significant regrowth of colonies; inhibition of ERK1/2 phosphorylation ([15]; 2 h, vemurafenib 0.5 or 1 μM, parental A375): complete inhibition; phospho-ERK1/2 bands ([15]; 24 h, vemurafenib 0.5 and 1.0 μM): not observed; phosphorylation of ERK1/2 [16]: inhibited the phosphorylation of ERK1/2; reduction in tumor volume compared to control (A375 xenograft tumors; nude mice, dosed 15 days, PAC-1 100 mg/kg once daily i.p., vemurafenib 10 mg/kg twice daily p.o.): 53%; mice having comparable tumor mass as the control mice (A375 xenograft tumors; vemurafenib 10 mg/kg twice daily p.o., 15 days): 3 out of 8; Emax (A375 cells; Homo sapiens, A375 cells, after 5 days, read-out: Emax (percent cell death induced by high concentrations of compound)): 96.8 ± 0.3%; A375 cells insensitive to compound (A375 cells; after 5 days, from Emax): ~3% |
